Data set [1] deals with A549 human lung cancer cells. Briefly: Flow cytometry analysis of apoptosis (propidium iodide). It is filed as cell-based. The conditions noted are these: for percentage of apoptosis: 48 hrs. As to the method:
(§1) Apoptosis of cells was measured by propidium iodide staining and FACS analysis. Cells were harvested, pelleted by centrifugation and resuspended in phosphate-buffered saline containing 50 μg/ml propidium iodide, 0.1% Triton X-100, and 0.1% sodium citrate and vortexed prior to FACS analysis (Becton-Dickenson FACScan, Mountain View, Calif.; FL-3 channel).

Data set [2] concerns H460 human lung cancer cells. The data set is described as above. Particulars: for percentage of apoptosis: 48 hrs. Type of data set: cell-based. As to the method: as §1
In data set [3] the test system is MCF-7 cells. Briefly: 3H-thymidine cell proliferation assay. The conditions noted are these: Taxotere 0.5-2 ng/mL, 3 days. Type of data set: cell-based, human.
Description: (§6) Cells were plated at 500-2000 cells/well in 96-well format for ^3H-thymidine incorporation-assays, or at 10^5-10^6 cells/well in a 6-well plate format for protein expression, trypan blue viability or apoptosis assays. In drug combination studies, drugs were added once just prior to addition of vectors and cells were continuously exposed to agents.
(§7) The cells were harvested using Trypsin/EDTA (GIBCO), collected on a Filter using a Packard Filtermate cell Harvester, and washed in deionized water and methanol following the manufacturer protocols. The filters were dried and analyzed using a Matrix 9600 (Packard).
Data set [4] relates to T47D cells. Briefly: 3H-thymidine cell proliferation assay. Particulars: Taxotere 0.5-2 ng/mL, 3 days. It is filed as cell-based, human.
Description: as §6, §7
For data set [5], the system named is T47D cells. Briefly: Annexin V apoptosis assay. It is filed as cell-based, human. Particulars: T47D cells treated with Ad-mda7 2000 vp/cell. As to the method:
Apoptosis was measured by TUNEL and Annexin V assays. […] Cell viability was determined by trypan-blue exclusion assay.

The conditions of data set [6]: cited from earlier work; for time of peak plasma levels after an oral dose / delay of plasma levels with a high fat meal: in vivo.
The test system of data set [7] is HUVECs. Nature of the data set: Cell viability assay (trypan blue exclusion). Type of data set: cell-based, human. The conditions noted are these: Ad-mda7 1000 vp/cell; Bivacizumab 0.78, 1.56, 3,125 ug/ml; 48 h and 72 h. As to the method: (§2) H1299 cells (2×10^5/well) and HUVECs (3×10^5/well) were seeded in six-well plates. […] At 48 hours and […] after the treatment, cells were trypsinized and analyzed for trypan blue cell exclusion assay.

The test system of data set [8] is H1299 cells. Nature of the data set: Cell viability assay (trypan blue exclusion). Type of data set: cell-based. The conditions noted are these: Ad-mda7 1000 vp/cell; Bivacizumab 0.78, 1.56, 3,125 ug/ml; up to 72 hours. As for the experimental part:
Cells treated with PBS served as a control. Cells were harvested at various time points as listed in figures and subjected to cell viability assay as previously described (Saeki et al., 2000).
as §2

Data set [9] has as its system H1299 tumors in nude mice. Nature of the data set: Subcutaneous H1299 xenograft. It is filed as in vivo, mouse. The conditions noted are these: vector 1×10^10 vp intratumorally, Avastin 5 mg/Kg (100 ug/body) i.p., twice a week, 28 days. As for the experimental part: Bivacizumab (100 ug/body) was given i.p. twice a week. Animals were weighed weekly and tumor growth was measured thrice a week as described previously (Saeki et al., 2002; Ramesh et al., 2003). At 28 days after the first treatment, all animals were killed via CO2 inhalation, and tumors were collected for histopathological examination and Western blot analysis. Two different sets of experiments were done.

Data set [10] concerns HUVECs. Nature of the data set: Endothelial cell proliferation with conditioned medium from treated H1299 cells. Type of data set: cell-based, human. The conditions noted are these: medium collected at 48 h; compared to PBS and Ad-luc. As to the method: For analysis of the effect of conditioned medium from Ad-mda7-treated H1299 on endothelial cell proliferation, human umbilical vein endothelial cells (HUVECs) were seeded in six-well plates (3×10^5 cells/well). […] HUVECs were incubated for an additional 3 days and later harvested and subjected to cell viability assay (Ramesh et al., 2003; Mhashilkar et al., 2001).

Data set [11] deals with STAT3. Briefly: Phospho-STAT3 immunofluorescence assay. Type of data set: cell-based, human. The conditions noted are these: MDA-MB231 and MDA-MB453 cells. As to the method: Cells growing in chamber slides were treated with human IL-24 protein in various concentrations (0-20 ng/ml) for 30 min. Cells were fixed with ethanol:acetic acid (9.5:0.5) and then stained with phospho-Stat3 primary antibody and FITC-labeled secondary antibody. The slides were analyzed using a Nikon fluorescence microscope.

Data set [12] has as its system MDA-MB453 cells. Briefly: Cell viability by trypan blue exclusion assay. The conditions noted are these: for cell death (cytotoxicity) by cytokine protein: 30 ng/ml, 96 h. It is filed as cell-based, human. As to the method: (§3) MDA-MB231 and MDA-MB453 breast cancer lines were obtained from the America Type Culture Collection (ATCC, Manassas, Va.) and were maintained in DMEM (Hyclone, Inc., Logan, Utah) supplemented with 10% fetal bovine serum (Life Technologies, Inc.), 100 units/ml penicillin, 100 μg/ml streptomycin, 2 mM L-glutamine, and HEPES buffer (Life Technologies, Inc., Grand Island, N.Y.). The cells were screened routinely to verify lack of mycoplasma contamination and were used in the log phase of growth. […] Rabbit phospho-Stat3 (Tyr705) antibody was purchased from Cell Signaling Technology Inc. (Beverly, Mass.), β-Actin monoclonal antibody and terminal deoxynucleotidyl transferase-mediated dUTP-biotin nick-end labeling (TUNEL) kits were purchased from Oncogene Research Products (San Diego, Calif.), and all other primary and secondary antibodies were purchased from Santa Cruz Biotechnology (Santa Cruz, Calif.). Cell viability was analyzed by trypan blue exclusion assay. Cells were trypsinized and an aliquot suspended 1:1 volume with 0.4% trypan blue.
(§4) Full-length mda-7 cDNA was cloned into pCEP4 FLAG vector (Invitrogen, San Diego, Calif.) containing the CMV promoter. The plasmid was transfected into HEK 293 cells, and stable sub-clones were isolated using hygromycin (0.4 μg/ml).
(§5) The mda-7 gene was linked to an internal CMV-IE promoter, followed by an SV40 polyadenylation sequence. The same adenoviral vector containing the sequence for expression of luciferase (Ad-luc) was used as control virus. Cells were plated 1 day before infection.

Data set [13] concerns MDA-MB231 cells. Nature of the data set: Cell viability by trypan blue exclusion assay. Type of data set: cell-based, human. The conditions noted are these: for cell death (cytotoxicity) by cytokine protein: 30 ng/ml, 96 h. As for the experimental part: as §3, §4, §5
Where [14] appears, read: 48 h, two doses of 17AAG, combination compared with Ad-luc and 17AAG.
Setting [15] is: 30 ng/ml IL-24 with IL-10 0-300 ng/ml.

This is an account of results in patent US20070009484A1, “Compositions and methods involving MDA-7 for the treatment of cancer” (Board of Regents, The University of Texas System, priority 2005, published 2007).

Peptide text beside a SMILES is read from it. * marks the point of attachment. Cbz = O=C(OCc1ccccc1)*; CH2F = FC*

As for `C=CCNC1=C2C[C@@H](C)C[C@H](OC)[C@H](O)[C@@H](C)/C=C(\C)[C@H](OC(N)=O)[C@@H](OC)/C=C\C=C(/C)C(=O)NC(=CC1=O)C2=O` [17AAG, 17-allyl-aminogeldanamycin], the “cell death / apoptosis with 17AAG” value in [1] (setting [14]) and in data set [2] (setting [14]) was “resulted in cell death” in each case.

As for `COC1=C2C[C@@H](C)C[C@H](OC)[C@H](O)[C@@H](C)/C=C(\C)[C@H](OC(N)=O)[C@@H](OC)/C=C\C=C(/C)C(=O)NC(=CC1=O)C2=O` [GA, Geldanamycin], the percentage of apoptosis in [1] (GA 50 nm) is 6.3%; in [1] (GA 150 nm), 23.6%; in [2] (GA 50 nm), 5.7%; in data set [2] (GA 150 nm), 21%.

With `CC(=O)O[C@@]12CO[C@@H]1C[C@H](O)[C@@]1(C)C(=O)[C@H](O)C3=C(C)[C@@H](OC(=O)[C@H](O)[C@@H](NC(=O)OC(C)(C)C)c4ccccc4)C[C@@](O)([C@@H](OC(=O)c4ccccc4)[C@H]21)C3(C)C` [Taxotere, docetaxel], the “inhibition of thymidine incorporation” value in [3] and in [4] was “approximately 40%” throughout.

`COC(=O)C[C@H](NC(=O)[C@H](C)NC(=O)[C@@H](NC(=O)OCc1ccccc1)C(C)C)C(=O)CF` [ZVAD] (Cbz-Val-Ala-Asp(OMe)-CH2F): the “reduction of Ad-mda7 induced apoptosis” value in [5] came to 40%.

As to `CS(=O)(=O)c1ccc(C2=C(c3ccccc3)C(=O)OC2)cc1` [rofecoxib, 4-[4-(methylsulfonyl)phenyl]-3-phenyl-2-(5H)furanone], in [6], the “time of peak plasma levels after an oral dose” value is 2 to 3 h and the “delay of plasma levels with a high fat meal” value is 1 to 2 h.

Regarding `Cc1onc(-c2ccccc2)c1-c1ccc(S(N)(=O)=O)cc1` [valdecoxib, 4-(5-methyl-3-phenyl-4-isoxazolyl)benzenesulfonamide], the “active metabolite concentration in human plasma relative to parent” value in [6] (human plasma) is listed as “about 10%”. In [6], the “time of peak plasma levels after an oral dose” value is recorded as “about 3 hours” and the “delay of plasma levels with a high fat meal” value is 1 to 2 h.

For the molecule “Bevacizumab: VEGF inhibitor, monoclonal antibody that specifically binds VEGF”, the “cell viability / toxicity” value in data set [7] is “inhibited HUVEC viability”; in [8], “did not show harmful effect”. In [9], the tumor growth result is “Significant inhibition of tumor growth”. Moreover, in data set [10], the “HUVEC proliferation with conditioned medium from treated H1299 cells” value is given as “significantly inhibited HUVEC proliferation”.

On to IL-10: recombinant IL-10, for which the “STAT3 activation (phospho-STAT3)” value in data set [11] was “able to activate STAT3”. Moreover, the “effect on IL-24-protein-induced killing” value in [12] (setting [15]) and in [13] (setting [15]) was “significantly inhibited IL-24-protein-induced killing in a dose-dependent manner” each time. Also, the “cell death (cytotoxicity) by cytokine protein” value (shortened to “cell death (cytotoxicity)”) in [12] and in [13] was “none of these induced cell death above background levels” throughout.

With IL-22: IL-10 family cytokine, the “cell death (cytotoxicity)” value in data set [12] and in [13] was “none of these induced cell death above background levels” in each case.

B1: IL-24: purified human IL-24 (MDA-7) protein from 293-IL24 cell supernatant (protein)
chain: QEFHFGPCQVKGVVPQKLWEAFWAVKDTMQAQDNITSARLLQQEVLQNVSDAESCYLVHTLLEFYLKTVFKNYHNRTVEVRTLKSFSTLANNFVLIVSQLQPSQENEMFSIRDSAHRRFLLFRRAFKQLDVEAALTKALGEVDILLTWMQKFYKL
Take B1: the “STAT3 activation (phospho-STAT3)” value in data set [11] was “able to activate STAT3”. In addition, the “cell death (cytotoxicity)” value in data set [12] and in [13] was “induction of significant cell death” in each case.

B2: IL-19: IL-10 family cytokine (protein, UniProt Q9UHD0 25-177, looked up)
Interleukin-19: LRRCLISTDMHHIEESFQEIKRAIQAKDTFPNVTILSTLETLQIIKPLDVCCVTKNLLAFYVDRVFKDHQEPNPKILRKISSIANSFLYMQKTLRQCQEQRQCHCRQEATNATRVIHDNYDQLEVHAAAIKSLGELDVFLAWINKNHEVMFSA
B2: the “cell death (cytotoxicity)” value in [12] and in [13] was “none of these induced cell death above background levels” each time.
